# Assay results from patent publication US20220226219A1, “ANTIMICROBIAL COMPOSITIONS” (Conopco, Inc., d/b/a UNILEVER, priority 2019, published 2022).
# Test system: Gram negative fermenting bacteria; Enterobacter gergoviae and Klebsiella species
# Experiment: Liquid broth MIC assay of individual chemicals
# Type: cell-based
# Conditions: tryptic soy broth, 30° C., 24 hours, OD600, MIC = concentration at which <25% growth vs positive growth control
# Description: Liquid broth assays (MIC and checkerboard) were conducted to identify the minimum concentration(s) of individual and tertiary antimicrobial chemicals. A modified methodology to ISO 20776-1:2006 was utilized for the screening as follows. Stock solutions of antimicrobial chemicals and tryptic soy broth were inoculated with 1-5×10^6 microorganism mixture of Gram negative fermenting bacteria; Enterobacter gergoviae and Klebsiella species.
# Samples were incubated at 30° C. for 24 hours, after which optical densities at OD600 nm were measured.
row,MIC [wt %],Compound
1,0.125,CC1=CC[C@@H](C(C)(C)O)CC1 [Terponeol]
2,2,CCCCCCOC(C)=O [Hexyl acetate]
3,2,CC1CCC(C(C)C)C(O)C1 (stereo not shown) [Menthol]
4,0.063,C=CCc1ccc(O)c(OC)c1 [Eugenol]
5,0.5,OCCc1ccccc1 [Phenethyl Alcohol]
6,2,CC12CCC(CC1)C(C)(C)O2 [Eucalyptol]
7,2,"CC(C)=CCC/C(C)=C/CO [Geraniol Natural, Geraniol]"
8,2,CC(=O)OCc1ccccc1 [Benzyl Acetate]
9,2,CCCC(=O)OCC [Ethyl Butyrate]
10,2,CC(C)=CCCC(C)CCO (stereo not shown) [Citroneol]
11,0.063,"Cc1cc(CC(C)CC(C)(C)C)n(O)c(=O)c1.NCCO (stereo not shown) [Octopirox, piroctone olamine, reference compound]"
12,2,C=C(C)[C@H]1CC=C(C)CC1 [Limonene]
13,0.5,C=C(CC(=O)O)C(=O)O [ltaconic Acid]
14,2,CC(=O)OC/C=C(\C)CCC=C(C)C [Geranyl Acetate]

row,Compound,MIC [wt %]
1,CCCCCCCC1CCC(=O)O1 (stereo not shown) [Gamma Undecalactone],2
2,O=C([O-])c1ccccc1.[Na+] [Sodium benzoate],0.5
